{
  "source": "patent US6841570B2",
  "about": "“Materials and methods for controlling wood-boring insects” (priority 2002, dated 2005)",
  "key": {"Reticultiermes flavipes [1]": {"test_system": "Reticultiermes flavipes", "test": "Repellency tests, half-treated filter paper in petri dishes", "assay_type": "in vivo", "details": "0.0535% nepetalactone on half of the filter paper; six ten minute intervals", "procedure": "Materials: Reticultiermes flavipes, from the family Rhinotermitidae, the most common subterranean termites, were collected for toxicity tests, nepetalactone was obtained by commercial purchase (Kooky Kat Catnip Co., B.C.). For repellency assays, a donated amount of nepetalactone was provided from Iowa State University, courtesy of Dr. Joel Coates. Bioassays: Acetone was used as solvent for nepetalactone and control (permethrin). Absorbent (Fisherbrand) coarse, filter paper was treated with nepetalactone and controls and placed in standard, sterile polystyrene 100×15 mm petri dishes. Reticultierme flavipes (20 per replication) were placed in petri dishes and location monitored at 6 ten minute intervals. Repellency tests: Eight trials each of 0.0535% nepetalactone, 0.1% permethrin, blank, and pure acetone solvent were ran to test repellency. Filter papers were cut in half with solvent on one half and treated side on the opposite half. […] Termites were measured on treated and untreated sides at six consecutive ten minute intervals. Percent repellency was calculated as follows: (# live termites−# live termites treated)/total #termites. Standard mean of the Error (SEM): SEM=(variance)^1/2[…]."}, "Reticultiermes flavipes [2]": {"test_system": "Reticultiermes flavipes", "test": "Toxicity tests of nepetalactone on treated filter paper in petri dishes", "assay_type": "in vivo", "details": "filter paper treated with acetone solutions; strengths 5.35%, 0.535%, 0.0535%, 0.000004%", "procedure": "Materials: Reticultiermes flavipes, from the family Rhinotermitidae, the most common subterranean termites, were collected for toxicity tests, nepetalactone was obtained by commercial purchase (Kooky Kat Catnip Co., B.C.). For repellency assays, a donated amount of nepetalactone was provided from Iowa State University, courtesy of Dr. Joel Coates. Bioassays: Acetone was used as solvent for nepetalactone and control (permethrin). Absorbent (Fisherbrand) coarse, filter paper was treated with nepetalactone and controls and placed in standard, sterile polystyrene 100×15 mm petri dishes. Reticultierme flavipes (20 per replication) were placed in petri dishes and location monitored at 6 ten minute intervals. Toxicity tests: Toxicity tests of nepetalactone were conducted to determine non-lethal percentage for repellency assays. Permethrin (0.1%) solutions served as known control. Four strengths of nepetalactone were measured: 5.35%, 0.535%, 0.0535%, and 0.000004%. Based on the evident mortality, 0.0535% nepetalactone was selected as the repellency test solution."}},
  "note": "Entries after “also recorded” stand apart in the source; their conditions may differ.",
  "data": [
    {"smiles": "CC1=COC(=O)C2C(C)CCC12", "note": "(centres unmarked) [nepetalactone, 5,6,7,7a-tetrahydro-4,7-dimethyl cyclopenta[c]pyran-1-(4aH)-one]", "values": [
      {"measurement": "repellant effect on termites", "setting": "Reticultiermes flavipes [1]", "result": "dramatic repellant effect; also recorded: clear repellant"},
      {"measurement": "toxic effect (mortality) to termites", "setting": "Reticultiermes flavipes [2]", "result": "lethal to termites; also recorded: toxic effects"}
    ]}
  ]
}
